From the CheMixHub viscosity set
± gives the uncertainty stated by the source.

Assay: xn = mol fraction of the nth substance listed

COCCOCCOCCOCCOC + ClC(Cl)(Cl)Cl
298.15 K, 101 kPa
Conditions | viscosity [mPa·s]
x1 = 0.0127 | 0.966 ± 0.007
x1 = 0.0282 | 1.01 ± 0.007
x1 = 0.0629 | 1.122 ± 0.008
x1 = 0.1168 | 1.311 ± 0.01
x1 = 0.1932 | 1.562 ± 0.013
x1 = 0.2437 | 1.723 ± 0.016
x1 = 0.2943 | 1.888 ± 0.019
x1 = 0.3592 | 2.081 ± 0.024
x1 = 0.3669 | 2.102 ± 0.024
x1 = 0.4164 | 2.242 ± 0.028
x1 = 0.4414 | 2.319 ± 0.031
x1 = 0.511 | 2.487 ± 0.036
x1 = 0.5854 | 2.656 ± 0.043
x1 = 0.6215 | 2.732 ± 0.047
x1 = 0.6944 | 2.874 ± 0.054
x1 = 0.7318 | 2.94 ± 0.057
x1 = 0.7968 | 3.067 ± 0.064
x1 = 0.8566 | 3.16 ± 0.071
x2 = 0.0114 | 3.287 ± 0.083

Clc1ccccc1 + COC(C)(C)C
viscosity [mPa·s], 101.33 kPa
Conditions | x2 = 0.0948 | x2 = 0.1898 | x2 = 0.2929 | x2 = 0.3832 | x2 = 0.4974 | x2 = 0.6209 | x2 = 0.7014 | x2 = 0.8089 | x2 = 0.9102
293.15 K | 0.7752 ± 0.041 | 0.7379 ± 0.039 | 0.6754 ± 0.036 | 0.6443 ± 0.034 | 0.5825 ± 0.031 | 0.5368 ± 0.028 | 0.4905 ± 0.026 | 0.456 ± 0.024 | 0.4191 ± 0.022
298.15 K | 0.7335 ± 0.039 | 0.6981 ± 0.037 | 0.6506 ± 0.034 | 0.6036 ± 0.032 | 0.5697 ± 0.03 | 0.5019 ± 0.027 | 0.4658 ± 0.025 | 0.4246 ± 0.023 | 0.3945 ± 0.021

COC(C)(C)C + CC(C)CC(C)(C)C
Conditions | viscosity [mPa·s]
298.15 K, 101.33 kPa, x1 = 0.125 | 0.4633 ± 0.0043
298.15 K, 101.33 kPa, x1 = 0.2442 | 0.4465 ± 0.0042
298.15 K, 101.33 kPa, x1 = 0.3612 | 0.4301 ± 0.0041
298.15 K, 101.33 kPa, x1 = 0.462 | 0.4159 ± 0.0041
298.15 K, 101.33 kPa, x1 = 0.5638 | 0.4012 ± 0.004
298.15 K, 101.33 kPa, x1 = 0.6579 | 0.3878 ± 0.0039
298.15 K, 101.33 kPa, x1 = 0.7533 | 0.3739 ± 0.0039
298.15 K, 101.33 kPa, x1 = 0.8375 | 0.3611 ± 0.0038
298.15 K, 101.33 kPa, x1 = 0.9182 | 0.3483 ± 0.0038
303.15 K, 101 kPa, x1 = 0.1862 | 0.436 ± 0.003
303.15 K, 101 kPa, x1 = 0.3104 | 0.423 ± 0.003
303.15 K, 101 kPa, x1 = 0.3813 | 0.416 ± 0.003
303.15 K, 101 kPa, x1 = 0.4961 | 0.404 ± 0.003
303.15 K, 101 kPa, x1 = 0.6203 | 0.39 ± 0.003
303.15 K, 101 kPa, x1 = 0.6609 | 0.386 ± 0.003
303.15 K, 101 kPa, x1 = 0.8925 | 0.36 ± 0.003

COC(C)(C)C + CCCCO
viscosity [mPa·s], 101 kPa
Conditions | x1 = 0.1006 | x1 = 0.102 | x1 = 0.2 | x1 = 0.2998 | x1 = 0.3995 | x1 = 0.5111 | x1 = 0.6008 | x1 = 0.6996 | x1 = 0.7994 | x1 = 0.9005
298.15 K | – | 1.94 ± 0.024 | 1.48 ± 0.018 | 1.14 ± 0.014 | 0.902 ± 0.011 | 0.719 ± 0.009 | 0.613 ± 0.008 | 0.529 ± 0.007 | 0.46 ± 0.006 | 0.401 ± 0.005
303.15 K | 1.695 ± 0.069 | – | – | – | – | – | – | – | – | –

CCCCC(CC)CN (stereo not given) + COCCOCCOC
viscosity [mPa·s], 101.33 kPa
Conditions | x2 = 0.0967 | x2 = 0.194 | x2 = 0.292 | x2 = 0.391 | x2 = 0.491 | x2 = 0.591 | x2 = 0.692 | x2 = 0.794 | x2 = 0.897
303.2 K | 0.98 ± 0.05 | 0.97 ± 0.06 | 0.96 ± 0.05 | 0.95 ± 0.05 | 0.94 ± 0.05 | 0.93 ± 0.05 | 0.92 ± 0.05 | 0.93 ± 0.05 | 0.94 ± 0.05
313.2 K | 0.86 ± 0.04 | 0.85 ± 0.04 | 0.84 ± 0.04 | 0.82 ± 0.04 | 0.81 ± 0.04 | 0.8 ± 0.04 | 0.79 ± 0.04 | 0.8 ± 0.04 | 0.81 ± 0.04

Clc1ccccc1 + c1ccccc1
Conditions | viscosity [mPa·s]
293.15 K, 101.33 kPa, x1 = 0.143 | 0.6759 ± 0.0078
293.3 K, 101.33 kPa, x1 = 0.028 | 0.6845 ± 0.0079
293.55 K, 101.33 kPa, x1 = 0.232 | 0.711 ± 0.0082
293.65 K, 101.33 kPa, x1 = 0.318 | 0.7337 ± 0.0085
298.15 K, 101 kPa, x1 = 0.08 | 0.613 ± 0.017
298.15 K, 101 kPa, x1 = 0.121 | 0.62 ± 0.017
298.15 K, 101 kPa, x1 = 0.162 | 0.623 ± 0.017
298.15 K, 101 kPa, x1 = 0.8 | 0.718 ± 0.019
298.15 K, 101 kPa, x2 = 0.1034 | 0.7546 ± 0.0079
298.15 K, 101 kPa, x2 = 0.2016 | 0.7369 ± 0.0078
298.15 K, 101 kPa, x2 = 0.303 | 0.7233 ± 0.0077
298.15 K, 101 kPa, x2 = 0.4022 | 0.7072 ± 0.0076
298.15 K, 101 kPa, x2 = 0.4985 | 0.6923 ± 0.0075
298.15 K, 101 kPa, x2 = 0.6048 | 0.6743 ± 0.0074
298.15 K, 101 kPa, x2 = 0.6994 | 0.6625 ± 0.0074
298.15 K, 101 kPa, x2 = 0.8033 | 0.6462 ± 0.0073
298.15 K, 101 kPa, x2 = 0.9031 | 0.632 ± 0.0072
303.15 K, 101 kPa, x2 = 0.1126 | 0.7 ± 0.0089
303.15 K, 101 kPa, x2 = 0.2016 | 0.6977 ± 0.0076
303.15 K, 101 kPa, x2 = 0.2221 | 0.6855 ± 0.0087
303.15 K, 101 kPa, x2 = 0.303 | 0.6794 ± 0.0075
303.15 K, 101 kPa, x2 = 0.3286 | 0.6713 ± 0.0085
303.15 K, 101 kPa, x2 = 0.4322 | 0.6573 ± 0.0083
303.15 K, 101 kPa, x2 = 0.4985 | 0.652 ± 0.0073
303.15 K, 101 kPa, x2 = 0.5331 | 0.6432 ± 0.0082
303.15 K, 101 kPa, x2 = 0.6048 | 0.6347 ± 0.0072
303.15 K, 101 kPa, x2 = 0.6314 | 0.6285 ± 0.008
303.15 K, 101 kPa, x2 = 0.6994 | 0.6217 ± 0.0072
303.15 K, 101 kPa, x2 = 0.7271 | 0.6127 ± 0.0078
303.15 K, 101 kPa, x2 = 0.8033 | 0.6064 ± 0.0071
303.15 K, 101 kPa, x2 = 0.8204 | 0.5964 ± 0.0076
303.15 K, 101 kPa, x2 = 0.9031 | 0.5883 ± 0.007
303.15 K, 101 kPa, x2 = 0.9113 | 0.5798 ± 0.0074
303.15 K, 101.33 kPa, x1 = 0.143 | 0.6027 ± 0.007
308.15 K, 101 kPa, x1 = 0.08 | 0.537 ± 0.015
308.15 K, 101 kPa, x1 = 0.121 | 0.544 ± 0.015
308.15 K, 101 kPa, x1 = 0.162 | 0.547 ± 0.015
308.15 K, 101 kPa, x2 = 0.303 | 0.6411 ± 0.0072
308.15 K, 101 kPa, x2 = 0.4022 | 0.6281 ± 0.0072
308.15 K, 101 kPa, x2 = 0.4985 | 0.6109 ± 0.0071
308.15 K, 101 kPa, x2 = 0.6048 | 0.5958 ± 0.007
308.15 K, 101 kPa, x2 = 0.6994 | 0.5832 ± 0.007
308.15 K, 101 kPa, x2 = 0.8033 | 0.5679 ± 0.0069
308.15 K, 101 kPa, x2 = 0.9031 | 0.5512 ± 0.0068
313.05 K, 101.33 kPa, x1 = 0.318 | 0.5743 ± 0.0066
313.15 K, 101 kPa, x2 = 0.303 | 0.6041 ± 0.0071
313.15 K, 101 kPa, x2 = 0.4022 | 0.5902 ± 0.007
313.15 K, 101 kPa, x2 = 0.4985 | 0.5747 ± 0.0069
313.15 K, 101 kPa, x2 = 0.6048 | 0.5628 ± 0.0069
313.15 K, 101 kPa, x2 = 0.6994 | 0.5482 ± 0.0068
313.15 K, 101 kPa, x2 = 0.8033 | 0.5333 ± 0.0067
313.15 K, 101 kPa, x2 = 0.9031 | 0.5146 ± 0.0066
313.15 K, 101.33 kPa, x1 = 0.028 | 0.5278 ± 0.0061
313.15 K, 101.33 kPa, x1 = 0.411 | 0.5831 ± 0.0067
313.25 K, 101.33 kPa, x1 = 0.143 | 0.54 ± 0.0062
313.25 K, 101.33 kPa, x1 = 0.232 | 0.5469 ± 0.0064
313.25 K, 101.33 kPa, x1 = 0.707 | 0.6187 ± 0.0071
313.35 K, 101.33 kPa, x1 = 0.512 | 0.593 ± 0.0069
313.75 K, 101.33 kPa, x1 = 0.073 | 0.5223 ± 0.006
313.75 K, 101.33 kPa, x1 = 0.568 | 0.5979 ± 0.0069
313.75 K, 101.33 kPa, x1 = 0.849 | 0.6472 ± 0.0075
318.15 K, 101 kPa, x1 = 0.08 | 0.475 ± 0.013
318.15 K, 101 kPa, x1 = 0.121 | 0.482 ± 0.013
318.15 K, 101 kPa, x1 = 0.162 | 0.486 ± 0.013
322.85 K, 101.33 kPa, x1 = 0.143 | 0.5005 ± 0.0058
323.15 K, 101 kPa, x1 = 0.08 | 0.444 ± 0.012
323.15 K, 101 kPa, x1 = 0.121 | 0.451 ± 0.012
323.15 K, 101 kPa, x1 = 0.162 | 0.454 ± 0.012
323.15 K, 101 kPa, x1 = 0.8 | 0.541 ± 0.015

CCc1ccccc1 + C1CCCCC1
303.15 K, 101 kPa
Conditions | viscosity [mPa·s]
x2 = 0.1 | 0.5951 ± 0.0042
x2 = 0.199 | 0.5943 ± 0.0042
x2 = 0.2994 | 0.5972 ± 0.0042
x2 = 0.3986 | 0.6025 ± 0.0042
x2 = 0.5008 | 0.6166 ± 0.0043
x2 = 0.5984 | 0.6366 ± 0.0044
x2 = 0.7004 | 0.6596 ± 0.0045
x2 = 0.798 | 0.7008 ± 0.0046
x2 = 0.9002 | 0.7571 ± 0.0049

COC(C)(C)C + Cc1ccccc1
298.15 K, 101 kPa
Conditions | viscosity [mPa·s]
x1 = 0.05 | 0.541 ± 0.01
x1 = 0.1 | 0.528 ± 0.009
x1 = 0.2001 | 0.505 ± 0.009
x1 = 0.3002 | 0.479 ± 0.009
x1 = 0.4001 | 0.458 ± 0.008
x1 = 0.5001 | 0.438 ± 0.008
x1 = 0.6001 | 0.419 ± 0.008
x1 = 0.6998 | 0.398 ± 0.008
x1 = 0.8 | 0.383 ± 0.007
x1 = 0.8999 | 0.372 ± 0.007
x1 = 0.9502 | 0.365 ± 0.007
